Assay results from US9492460B2, “Carbazole compounds useful as bromodomain inhibitors” (Bristol-Myers Squibb Company, priority 2013, dated 2016).
pIC50: −log10 of the molar value.

What follows are compounds tested against T1, bromodomain BRD4 (44-168), BRD4 (333-460), and BRD4 (1-477 or 44-460) (Homo sapiens, UniProt O60885) (assay: Time Resolved Fluorescence Resonance Energy Transfer (TR-FRET) binding assay). Details: one of the FRET assays described.
T1 construct: BRD4(44-168), BRD4(333-460), BRD4(44-460), BRD4(1-477), O60885-1; fused on or other part: N-terminal BirA biotinylation motif, biotinylated; The TVMV-cleavable His6 tag is removed, except in some BRD4(44-460) runs detected with anti-His terbium cryptate

`Cc1noc(C)c1-c1cc(C(N)=O)c2c3ccc(C(C)(C)O)c(F)c3n(C(c3ccc(F)cc3)C3CCOCC3)c2c1` (single isomer, unassigned) [Example 223, 2-(Dimethyl-1,2-oxazol-4-yl)-8-fluoro-9-[(4-fluorophenyl)(oxan-4-yl)methyl]-7-(2-hydroxypropan-2-yl)-9H-carbazole-4-carboxamide] and `Cc1noc(C)c1-c1cc(C(N)=O)c2c3cc(N4CCCCS4(=O)=O)ccc3n(Cc3ccc(F)cc3)c2c1` [Example 175, 2-(3,5-dimethyl-4-isoxazolyl)-6-(1,1-dioxido-1,2-thiazinan-2-yl)-9-(4-fluorobenzyl)-9H-carbazole-4-carboxamide] cannot be ordered by pIC50: greater than 7.30 for the first, greater than 7.30 for the second.

`CNC(=O)c1cc(-c2c(C)noc2C)cc2c1c1cc(C(=O)N3CC(F)C3)ccc1n2Cc1ccc(F)cc1F` [Example 106] and `CNC(=O)c1cc(-c2c(C)noc2C)cc2c1c1cc(C(=O)N3CC(F)C3)ccc1n2Cc1ccc(Cl)cc1` [Example 102, 9-(4-chlorobenzyl)-2-(3,5-dimethylisoxazol-4-yl)-6-(3-fluoroazetidine-1-carbonyl)-N-methyl-9H-carbazole-4-carboxamide] cannot be ordered by pIC50: greater than 6.30 for the first, greater than 7.30 for the second.

`Cc1noc(C)c1-c1cc(C(N)=O)c2c3cc(C(=O)N4C(C)(C)CC(O)CC4(C)C)ccc3n(Cc3ccccc3)c2c1` [Example 63] and `CNC(=O)c1cc(-c2c(C)noc2C)cc2c1c1cc(N3CCCOC3=O)ccc1n2Cc1ccccc1` [Example 169, 9-benzyl-2-(3,5-dimethyl-4-isoxazolyl)-N-methyl-6-(2-oxo-1,3-oxazinan-3-yl)-9H-carbazole-4-carboxamide] cannot be ordered by pIC50: greater than 7.30 for the first, greater than 7.30 for the second.

`Cc1noc(C)c1-c1cc(C(N)=O)c2c3cc(C(=O)N4CC(F)C4)ccc3n(CC3CC3)c2c1` [Example 92] and `Cc1csc(Cn2c3ccc(C(=O)N4CCC(F)C4)cc3c3c(C(N)=O)cc(-c4c(C)noc4C)cc32)n1` (stereo not shown) [Example 83] cannot be ordered by pIC50: greater than 7.30 for the first, greater than 7.30 for the second.

`Cc1noc(C)c1-c1ccc2c3cc(C(=O)N4C[C@@H](C)O[C@@H](C)C4)ccc3n(C(=O)c3ccccc3)c2c1` [Example 24, 9-benzoyl-2-(3,5-dimethyl-4-isoxazolyl)-6-((cis-2,6-dimethyl-4-morpholinyl)carbonyl)-9H-carbazole] and `Cc1ccccc1Cn1c2ccc(C(=O)N3CC(C)OC(C)C3)cc2c2ccc(-c3c(C)noc3C)cc21` (stereo not shown) [Example 19] cannot be ordered by pIC50: greater than 6.30 for the first, greater than 6.30 for the second.
